Assay results: US10473645B2, “Methods for identifying a receptor for a ligand and uses thereof” (UNIVERSITE DE GENEVE, priority 2014, dated 2019)

Assays:
Assay in all cases: OR transcript level by RT-qPCR after in vivo odorant exposure
Design in all cases: species or system mouse; key: The transcript downregulation of 21 out of the 26 olfactory receptor candidates obtained by RNAseq was confirmed by qPCR; false RNAseq positive candidates, namely OR candidates for which in fact mRNA was not downregulated following acetophenone exposure
Settings in all cases: 5% acetophenone exposure
[1] = tested on: olfr1054
Method: (§1) In vivo exposure to odorant: Starting 48 h before experiments, mice were habituated to pure DMSO on a cotton ball. 200 μl were pipetted directly onto the cotton and placed in the cage, replacing any cotton that was already in the cage for nest-making purposes.
(§2) On the day of the experiment, mice receiving odorants were transferred to a different room, where they were exposed to a cotton ball on which 200 μl of odorant diluted in pure DMSO were deposited. Exposures started in the morning between 8 and 10 am (that is two hours after lights were on) and mice were killed and dissected between 1 and 3 pm. […] If a number of different odorants were tested in the same experiment, a different overpressurized room would always be used for each odorant to avoid odor cross-contamination.
(§3) After odorant exposure, mice were killed by cervical dislocation and immediately decapitated. The main olfactory epithelia (MOE), were harvested in their entirety and transferred to a tube containing 600 μl of lysis buffer and β-mercaptoethanol (RNAeasy kit, Qiagen, following the manufacturer protocol) and a 0.5 cm diameter steel ball, and then put on ice. Samples were then homogenized using a FastPrep®-24 instrument (MP Biomedicals) at 6 m/s for 30 s and left on ice. RNA extraction was performed on all samples in parallel using the Qiagen RNeasy Mini® kit following the manufacturer's instructions. Two DNase treatments were performed on all samples: first using the Qiagen RNase-Free DNase Set® and then using the Life Technologies Ambion DNase I® kit. RNA samples were then aliquoted and stored at −80° C.
(§4) RNA concentrations were determined using an Amersham Ultrospec® 3100 Pro spectrophotometer, and RNA quality was evaluated with an Agilent Technologies 2100 Bioanalyzer®. Each reverse transcription was performed with 0.5 μg RNA using the Takara Primescript® kit, in a final volume of 10 μl. Primers for reverse transcription were equal mixtures of poly-T nucleotides and random hexamers. Negative controls (omitting the reverse transcriptase enzyme) were performed for each sample. 1/14th of the cDNA preparation was used for each triplicated qPCR reaction.
(§5) qPCR Ct values were analyzed using an in-house developed Microsoft Excel® macro file. Triplicate values were compared and outliers (values with a difference higher than 0.5 Ct to their nearest neighbor) were discarded. The number of conditions with an outlying value was always less than 10% of the total number of conditions. Ct values were converted to quantities relative to the maximum for each given gene. Selected reference genes were then analyzed for variance using the geNorm algorithm. All values were normalized with the olfactory tissue-specific genes Omp and Adcy3. β-Actin was used as a non-tissue-specific reference gene to control for differences in dissection between samples.
(§6) Mice (n=6) were exposed to 5% acetophenone or to a “neutral” control condition for 5 hours. An olfactory cDNA library corresponding to each animal was deep sequenced and the ratios of odorant receptor mRNA concentrations relative to controls were plotted (FIG. 3). […] Based on transcriptional downregulation levels observed by RNAseq following acetophenone exposure, a list of 26 candidate responsive ORs was determined (FIG. 3), that reached 74% decrease (Olfr145) or even over 80% (Olfr169) relative to controls. […] The transcript downregulation of 21 out of the 26 olfactory receptor candidates obtained by RNAseq was confirmed by qPCR.

[2] = tested on: olfr109
Method: as §1, §2, §3, §4, §5, §6

[3] = tested on: olfr1350
Method: as §1, §2, §3, §4, §5, §6

[4] = tested on: olfr1501
Method: as §1, §2, §3, §4, §5, §6

[5] = tested on: olfr229
Method: as §1, §2, §3, §4, §5, §6

[6] = tested on: olfr30
Method: as §1, §2, §3, §4, §5, §6

[7] = tested on: olfr378
Method: as §1, §2, §3, §4, §5, §6

[8] = tested on: olfr47
Method: as §1, §2, §3, §4, §5, §6

[9] = tested on: olfr736
Method: as §1, §2, §3, §4, §5, §6

[10] = tested on: olfr745
Method: as §1, §2, §3, §4, §5, §6

[11] = tested on: olfr750
Method: as §1, §2, §3, §4, §5, §6

[12] = tested on: olfr901
Method: as §1, §2, §3, §4, §5, §6

For `CC(=O)c1ccccc1` [acetophenone], the “olfr1054 candidate OR (RNAseq) confirmed by qPCR” value [1] was “y”, the “olfr109 candidate OR (RNAseq) confirmed by qPCR” value [2] was “y” and the “olfr1350 candidate OR (RNAseq) confirmed by qPCR” value [3] was “n”. For the same compound, the “olfr1501 candidate OR (RNAseq) confirmed by qPCR” value [4] was “y”, the “olfr229 candidate OR (RNAseq) confirmed by qPCR” value [5] was “y” and the “olfr30 candidate OR (RNAseq) confirmed by qPCR” value [6] was “y”. The “olfr378 candidate OR (RNAseq) confirmed by qPCR” value [7] was “n”, the “olfr47 candidate OR (RNAseq) confirmed by qPCR” value [8] was “y” and the “olfr736 candidate OR (RNAseq) confirmed by qPCR” value [9] was “y”. The “olfr745 candidate OR (RNAseq) confirmed by qPCR” value [10] was “y”, the “olfr750 candidate OR (RNAseq) confirmed by qPCR” value [11] was “n” and the “olfr901 candidate OR (RNAseq) confirmed by qPCR” value [12] was “y”.
